The subject of experiment [1] is de novo hepatic cholesterol synthesis. Kind of experiment: Acute rat cholesterol synthesis assay (de novo hepatic cholesterol synthesis from exogenously administered 14C-acetate). In kind it is in vivo. To be noted: female rats, dose and route not stated. As for the experimental part: (b) Acute rat cholesterol synthesis assay.
This is an acute in vivo test in the rat to measure de novo hepatic cholesterol synthesis from exogenously administered ^14 C-acetate.
Female rats (35-55 g) are housed in reverse lighting conditions (red light from 0200 h-1400 h) for a period of about 2 weeks prior to test. Animals are allowed free access to chow and drinking water throughout this period. At test, animals should weigh 125-150 g.
Test compounds may be administered by oral gavage, dissolved or suspended in 0.5% polysorbate, or by ip or iv dosing. Control animals receive vehicle alone. After 1 hour the rats are injected ip with 25 μCi [2-^14 C]-acetate (NEN DUPONT. specific activity, 45-60 mCi/mmol NEC-085H, or AMERSHAM specific activity, 50-60 mCi/mmol CFA 14) in a volume of 0.25 ml saline (100 μCi/ml). After a further hour, rats are terminally anaesthetised with halothane and a blood sample obtained from the abdominal vena cava.
1 ml of plasma is lyophilised and then saponified in 2 ml ethanolic KOH (1 part 33% KOH, 9 parts ethanol) at 75° C. for 2 hours. After addition of an equal quantity of water, non-saponifiable lipids are extracted with two 5 ml volumes of hexane. The hexane extracts are evaporated to dryness and the residues dissolved in ethanol to determine cholesterol specific radioactivity. ED50 values can be determined in the standard way.

In the next experiment the test system is Squalene synthase. Kind of experiment: Inhibition of squalene synthase (squalene formation from tritiated farnesyl pyrophosphate, rat liver microsomal protein). The class given is biochemical. Conditions: 2.5 μM, substrate 20 μM, 15 minutes, 37° C. How it is done: (a) Inhibition of Squalene synthase
In this test, the ability of a compound to prevent the formation of squalene from a radioactive substrate (tritiated farnesyl pyrophosphate) is assessed.
The test compound is incubated at a concentration of 25 micromolar in 200 μl of a buffered solution containing potassium phosphate (50 mM), MgCl2 (4.95 mM), KF (9.9 mM), NADPH (0.9 mM) and rat liver microsomal protein (20 μg). Rat liver microsomes are prepared by the method described in published European Patent Application No. 324,421 and stored in liquid nitrogen prior to assay. Assay vials are kept at 37° C. throughout the incubation.
The reaction is started with the addition of the substrate (1-[^3 H]-farnesyl pyrophosphate), final concentration 20 μM, and stopped after 15 minutes reaction time with the addition of 50 μl of 4% KOH. The reaction products are separated from unreacted substrate after application to a C-18 octadecyl 1 ccBond column (Analytichem Int product No. 617101). An aqueous fraction is eluted with 250 μl of 0.1M KOH. Squalene is then eluted with 1.0 ml 10% ethylacetate in hexane and radioactivity determined. The difference in radioactivity in the presence and absence of the test compound is used to determine the level of inhibition. […] The IC50 can then be determined from a plot of percentage inhibition against concentration of test compound.
In general terms: Liver microsomes are a subcellular fraction often used to study metabolism.

`CCCCOc1ccc(C#CC2(O)CN3CCC2CC3)cn1` (centres unmarked) [Example 1, 3-[2-(6-butoxy-3-pyridyl)ethynyl]quinuclidin-3-ol]: the “decrease in the rate of cholesterol biosynthesis” value in experiment [1] is 71%. For the same molecule, the “inhibition (squalene synthase)” value with Squalene synthase was “about 99%”.

For the origin of these results see patent US5731323A, “Quinuclidine derivatives as squalene synthase inhibitors” (Zeneca Limited, priority 1992, dated 1998).
